# Results: US10738028B2, “Spiro three-membered ring, spiro five-membered ring peptide deformylase inhibitor and use thereof in antibacteria and anti-tumor” (priority 2016, dated 2020)
# Like-named read-outs stand apart in the source and are kept apart here.
# Legend:
# [1] = system: Enterococcus faecalis (EFA); assay: MIC, two-fold agar dilution (CLSI), clinical isolates; format: cell-based
# Summary of the method: (§1)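 CLSI two-fold agar dilution; MIC of test samples read per tested strain.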
# [2] = system: Escherichia coli (including ESBLs, non-ESBLs); assay: as above; format: cell-based
# Summary of the method: as §1
# [3] = system: methicillin-resistant Staphylococcus aureus (MRSA); assay: as above; format: cell-based
# Summary of the method: as §1
# [4] = system: methicillin-resistant Staphylococcus epidermidis (MRSE); assay: as above; format: cell-based
# Summary of the method: as §1
# [5] = system: methicillin-sensitive Staphylococcus aureus (MSSA); assay: as above; format: cell-based
# Summary of the method: as §1
# [6] = system: methicillin-sensitive Staphylococcus epidermidis (MSSE); assay: as above; format: cell-based
# Summary of the method: as §1
# [7] = system: HCT-116 colorectal cancer cell line; assay: CCK-8 proliferation inhibition; format: cell-based
# Summary of the method: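 Viability read-out: 1:10 diluted CCK-8 after 72 h compound exposure at 37 °C, 5% CO2. Cells (2000/well, McCoy's 5A plus 10% newborn bovine serum) pre-cultured overnight; vehicle control 1‰ DMSO.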
# [8] = system: methemoglobin in blood samples of three healthy volunteers; assay: Toxicity on methemoglobin in vitro (whole blood with S9 and NADPH, absorbance at 630 nm); format: cell-based, human; details: for MetHb % (n = 3): 500 μM compound, whole blood + S9 + NADPH, 5 hours at 37° C.; for probability of methemoglobin formation in blood compared with the control drugs LBM415 and GSK1322322: toxicity test in vitro, in words
# Procedure: Because PDF inhibitors such as LBM415 and GSK1322322 can produce active species such as aromatic hydroxylamine and aromatic hydrazines in metabolic process, and cause human methemoglobinemia. To this end, continuous wavelength method was adopted in this invention to scan the absorption spectrum of blood samples in the wavelength range of 500 to 700 nm in the ultraviolet-visible spectrophotometer, and the contents of methemoglobin in blood samples of three healthy volunteers were calculated, after being effected by the synthesized compounds.
# Experimental materials: Nicotinamide adenine dinucleotide phosphate (NADPH) reduction system: glucose-6-disodium phosphate, nicotinamide adenine dinucleoside phosphate and glucose-6-phosphate dehydrogenase (purchased from Shanghai yuanye Bio-Technology Co., Ltd) were added to 1 mL of phosphate buffer solution (PBS, pH 7.4), and the mixture was shaked in a shaker type water bath at 37° C. for 10 min, and then cooled to 0° C. Mixed human hepatocytes fraction S9 was purchased from Xenotech (20 mg S9 protein/1 mL suspension medium). Compounds were prepared to stock solution at a concentration of 50 mM, which was stored at −20° C. for use. Dapsone was used as positive control experimental reagent, which was purchased from Sigma Aldrich. 1% w/v triton X-100 was self-prepared. Blood samples were collected using Vacutainer tubes containing EDTA anticoagulants (BD, Franklin Lakes, USA), which were sampled from three healthy volunteers and used immediately after sampling.
# Preparation of incubation system for blood samples and drugs: 250 μL of incubation system was consist of 220 μL of whole blood, 25 μL of S9 (final concentration: 2 mg S9 protein/mL incubation solution), 2.5 μL of NADPH form system (final concentration: 10 mM G-6-P, 1 mM NADP, 7.5 Units/mL) and 2.5 μL of stock solution of a compound (final concentration 500 μM). […] of incubation system was placed in an Eppendorf tube and incubated for 5 hours at 37° C. in water bath.
# Determination of the content of methemoglobin: 60 μL of an incubated sample was taken and lysed with 3.0 mL of 1% Triton X-100. The content of methemoglobin (MetHb) was measured by an ultraviolet-visible spectrophotometer, with the Triton X-100 solution used as blank control. A sample was placed in a cuvette, 1 minute later, the spectrums of the sample in the wavelength range from 500 nm to 700 nm were recorded. The sample was added with 2 mg of potassium ferricyanide, and was allowed to stay stationary for 2 minutes for completely oxidization of ferrous iron in the sample, and standard spectrum of methemoglobin with saturated potassium ferricyanide. The percentage of methemoglobin formation (MetHb %) was obtained by the ratio of absorbance at 630 nm. MetHb %=(A′−AB′)/AM′, wherein, A′ was the total absorbance of the sample at 630 nm, AB′ was the base absorbance of the reduced blood in the sample at 630 nm, and AM′ was the absorbance of oxidized blood with saturated potassium ferricyanide at 630 nm.
# [9] = MIC in vitro anti-bacterial experiments, Gram-positive bacteria; format: cell-based; details: read-out: minimum inhibitory concentration against Gram-positive bacteria
# Summary of the method: as §1
# [10] = system: A549 lung cancer cell line; assay: CCK-8 proliferation inhibition; format: cell-based; details: Homo sapiens, A549, 72 h, concentration of 30 μM
# Summary of the method: (§2)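 Plating at 2000 cells/well, then incubation overnight at 37° C. Next, a range of compound concentrations for 72 hours (control 1‰ DMSO). Finally, medium decanted and CCK-8 diluted 1:10 added.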
# [11] = system: BEL-7402 liver cancer cell line; assay: CCK-8 proliferation inhibition; format: cell-based; details: concentration of 30 μM, 72 hours, 30 µM
# Summary of the method: as §2
# [12] = system: MGC-803 gastric cancer cell line; assay: CCK-8 proliferation inhibition; format: cell-based; details: concentration of 30 μM
# Summary of the method: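 Growth inhibition measured by CCK-8 read-out after 72 h continuous compound treatment, 1‰ DMSO vehicle as control. Cells plated 2000/well the night before at 37 °C, 5% CO2; medium was 1640 for Jurkat and MGC-803, F12 for PC3, DMEM high glucose for MCF-7, each with 10% newborn bovine serum.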
# [13] = strain printed MRSA 14-1 (second line of that name, r23, before MRSE 14-2)
Compound,MIC (anti-bacterial activity) ([1]; strain EFA 14-1) [µg/mL],MIC (anti-bacterial activity) ([1]; strain EFA 14-2) [µg/mL],MIC (anti-bacterial activity) ([1]; strain EFA 14-3) [µg/mL],MIC (anti-bacterial activity) ([1]; strain EFA 14-5) [µg/mL],MIC (anti-bacterial activity) ([2]; strain ECO+ 14-1) [µg/mL],MIC (anti-bacterial activity) ([2]; strain ECO+ 14-2) [µg/mL],MIC (anti-bacterial activity) ([2]; strain ECO− 14-1) [µg/mL],MIC (anti-bacterial activity) ([2]; strain ECO− 14-2) [µg/mL],MIC (anti-bacterial activity) ([3]; strain MRSA 14-1) [µg/mL],MIC (anti-bacterial activity) ([3]; strain MRSA 14-2) [µg/mL],MIC (anti-bacterial activity) ([3]; strain MRSA 14-4) [µg/mL],MIC (anti-bacterial activity) ([3]; strain MRSA 14-5) [µg/mL],"MIC (anti-bacterial activity) [3, 13] [µg/mL]",MIC (anti-bacterial activity) ([4]; strain MRSE 14-2) [µg/mL],MIC (anti-bacterial activity) ([4]; strain MRSE 14-3) [µg/mL],MIC (anti-bacterial activity) ([4]; strain MRSE 14-4) [µg/mL],MIC (anti-bacterial activity) ([5]; strain MSSA 14-1) [µg/mL],MIC (anti-bacterial activity) ([5]; strain MSSA 14-2) [µg/mL],MIC (anti-bacterial activity) ([5]; strain MSSA 14-3) [µg/mL],MIC (anti-bacterial activity) ([5]; strain MSSA 14-4) [µg/mL],further results
CCCC[C@H](CN(O)C=O)C(=O)N1CC2(CC2)C[C@H]1C(=O)Nc1cc(C(C)(C)C)on1 [Example 3],0.5,0.5,0.5,> 128,1,64,64,64,0.06,0.06,< 0.008,0.06,0.03,0.03,0.015,0.03,0.125,0.125,0.25,0.06,"MIC (anti-bacterial activity) ([6]; strain MSSE 14-1): 0.03 µg/mL; MIC (anti-bacterial activity) ([6]; strain MSSE 14-2): 0.125 µg/mL; MIC (anti-bacterial activity) ([6]; strain MSSE 14-3): 0.015 µg/mL; MIC (anti-bacterial activity) ([6]; strain MSSE 14-4): 0.015 µg/mL; inhibition at 30 µM ([7]; Homo sapiens, HCT-116, 72 h, read-out: HCT116 inhibition rate/%): 2%; MetHb % (n = 3) [8]: 3.33 ± 0.06%; probability of methemoglobin formation in blood compared with the control drugs LBM415 and GSK1322322 [8]: lower probability of methemoglobin formation in blood; MIC [9]: < 8 ng/mL"
CCCC[C@H](CN(O)C=O)C(=O)N1CC2(CC2)C[C@H]1C(=O)Nc1ncc(C)s1 [Example 6],0.125,0.5,0.5,0.25,0.125,32,32,32,< 0.008,< 0.008,< 0.008,< 0.008,< 0.008,< 0.008,< 0.008,< 0.008,< 0.008,< 0.008,< 0.008,< 0.008,"MIC (anti-bacterial activity) ([6]; strain MSSE 14-1): < 0.008 µg/mL; MIC (anti-bacterial activity) ([6]; strain MSSE 14-2): < 0.008 µg/mL; MIC (anti-bacterial activity) ([6]; strain MSSE 14-3): < 0.008 µg/mL; MIC (anti-bacterial activity) ([6]; strain MSSE 14-4): < 0.008 µg/mL; HCT116 inhibition rate/% ([7]; concentration of 30 μM, 72 hours, CCK-8, 30 µM): 86%; inhibition at 30 µM [10]: 26%; Inhibition of proliferation, Liver cancer BEL-7402 [11]: 74%; inhibition at 30 µM ([12]; Homo sapiens, MGC-803, 72 h): > 50%; Inhibition of proliferation, Gastric cancer MGC-803 ([12]; 72 hours, 30 µM): 66%; MetHb % (n = 3) [8]: 2.25 ± 0.02%; probability of methemoglobin formation in blood compared with the control drugs LBM415 and GSK1322322 [8]: lower probability of methemoglobin formation in blood; MIC ([9]; lowest MIC reached): < 8 ng/mL"
